# Earlier results as cited in patent publication US5801147A, “Polypeptides and use thereof” (Takeda Chemical Industries, Ltd., priority 1991, dated 1998).
# No end group written: not given here.
# System: hypophysis cells
# Details: prior art
row,Substance,c-AMP-producing activity (background statement)
1,"PACAP27: a polypeptide consisting of 27 amino acid residues on the N-terminal side of PACAP38 (HSDGIFTDSYSRYRKQMAVKKYLAAVL; ends and bridges not checked; UniProt P18509 132-158, looked up)",The activity of PACAP38 has also been found
2,"PACAP25: polypeptide consisting of 25 amino acid residues on the N-terminal side of PACAP38 (HSDGIFTDSYSRYRKQMAVKKYLAA; ends and bridges not checked; UniProt P18509 132-156, looked up, fragment)",the same activity as that of PACAP27
3,"PACAP23: polypeptide consisting of 23 amino acid residues on the N-terminal side of PACAP38 (HSDGIFTDSYSRYRKQMAVKKYL; ends and bridges not checked; UniProt P18509 132-154, looked up, fragment)",the same activity as that of PACAP27
4,"PACAP26: polypeptide consisting of 26 amino acid residues on the N-terminal side of PACAP38 (HSDGIFTDSYSRYRKQMAVKKYLAAV; ends and bridges not checked; UniProt P18509 132-157, looked up, fragment)",the same activity as that of PACAP27
5,"PACAP24: polypeptide consisting of 24 amino acid residues on the N-terminal side of PACAP38 (HSDGIFTDSYSRYRKQMAVKKYLA; ends and bridges not checked; UniProt P18509 132-155, looked up, fragment)",the same activity as that of PACAP27
6,"PACAP38: polypeptide consisting of 38 amino acid residues, discovered in humans, sheep and rats (SEQ ID NO:1) (HSDGIFTDSYSRYRKQMAVKKYLAAVLGKRYKQRVKNK; ends and bridges not checked)",enhances the production of intracellular c-AMP in hypophysis cells
